Marks after values point to notes of the source that are not given here.
Experiments:
[1] = Body composition: body weight, FFM, fat mass, ASM (4-compartment model, DXA), AVF and thigh muscle (CT); type: in vivo, human; settings: for Mean Change in FFM from Baseline, 4-C / Mean Change in FFM from Baseline, DXA: n = 43
Experimental: This example presents the 6 and 12 mo (pivotal) body composition data in all subjects studied in a 2-yr crossover study. A total of 65 healthy older [60-81 yr; BMI 26.1±3 (19-35) kg/m^2] men and women on and off HRT (hormone replacement therapy) received MK-677 (⅔ of each group) or placebo in Yr 1. Total body fat mass, % fat, and fat-free mass (FFM) were determined every 6 mo over 2 yr using a 4-compartment (4-C) model, as well as dual energy x-ray absorptiometry (DXA, QDR 2000). 4-C model components: body weight and density (BodPod); total body water (D2O dilution); total bone mineral content (DXA). Data were analyzed by way of repeated measure ANCOVA with baseline response as the model covariate. P values and confidence limits were derived based on a Bonferroni two-sided experiment wise error rate 0.05; data shown are mean (upper and lower Bonferroni 95% CL).
Sixty-five healthy men and women (±HRT) ages 60-81 years were enrolled in a 2-year study of MK-677 (25 mg p.o. daily) or placebo. In addition to GH and IGF-I, the primary endpoints were fat-free mass (FFM), by 4-compartment model and DXA, and abdominal visceral fat (AVF) by CT. Secondary endpoints included isokinetic strength, function and quality of life (QoL); all endpoints were assessed at baseline and every 6 months, with frequent monitoring for adverse effects.
This NIH-funded study was approved by the General Clinical Research Center (GCRC) and the University of Virginia Institutional Review Boards. All subjects gave written informed consent. A two-year, double-blind, placebo-controlled modified crossover trial of once-daily administration of an oral GH secretogogue (MK-677, 25 mg) to healthy older adults was performed.
During the first year, subjects were randomized to MK-677 or placebo treatment. In each of 3 groups (23 men, 25 women on hormone replacement therapy (HRT) and 17 women not on HRT), ⅔ received MK-677 and ⅓ received placebo. At the end of year 1, the subjects who received placebo were switched to MK-677 treatment (N= 2/0 in year 2); subjects who received MK-677 for the first year were randomized to continue MK-677 (N=20) or to placebo (N=19).
Body Composition. The effects of treatment on FFM and total body fat were evaluated by two independent methods: a 4-compartment (4-C) model (5); and dual x-ray absorptiometry (DXA). All subjects were scanned on the same Hologic QDR-2000 in pencil beam mode as previously described (6); all scans were read by a single observer (J. L. C.). Total appendicular skeletal muscle (lean) mass (TASM) from DXA was measured as the sum of the lean soft-tissue masses for the arms and the legs as described by Heymsfield et al. (7). Total and abdominal visceral fat (AVF), and subcutaneous fat areas (cm^2), as well as thigh muscle were measured by computed tomography (CT) ((8) and all scans were read by a single observer (J. L. C.)
The two primary endpoints for this study are: 1) FFM, which is an important determinant of functional ability; and 2) AVF, which is the most important fat depot for cardiovascular risk. Based on a sample size of 60 subjects (40 randomized to MK-677 and 20 to placebo in year 1), this cross-over study was designed to have at least 90% power to detect a 4.1% or greater between-group difference in the change in percent FFM, with the same power to detect a 12.6% or greater between-group difference in the change in AVF (cm^2) after the initial 12-months of treatment. The sample size formula for two-sample Student's t-test was used to conduct the power analysis. The standard deviations used in the power calculations were 4.4% for percent FFM and 14.1% for AVF. Both power calculations reflect the power of a two-sided test with a type I error rate of 0.05.
The primary outcome data for the 6- and 12-month changes in FFM and AVF as well as for IGF-I and GH were analyzed via repeated measures ANCOVA. […]

[2] = Glucose metabolism: insulin sensitivity by Quicki, hemoglobin A1c; type: in vivo, human
Experimental: Assays and Insulin Sensitivity. Plasma glucose was measured on a Beckman analyzer and insulin and total IGF-I were measured in the GCRC Core Laboratory on an Immulite 2000 (Diagnostic Products Corporation, Los Angeles, Calif.). Additional safety laboratory tests were performed by standard methods in the UVA Clinical Laboratories. Fasting insulin and glucose were used to estimate insulin sensitivity by the Quicki method (4).
In each of the 2 years, volunteers were seen monthly the first 3 months and every 3 months thereafter for a physical examination, documentation of medications and vital signs, routine laboratory tests and detailed questioning about possible side effects. Fasting blood glucose and hemoglobin Alc (HBAlc) were monitored for possible changes with MK-677 treatment, since increased blood glucose had been observed in previous studies (11;15).

[3] = 6 mo, 25 mg p.o. daily, mean (Bonferroni 95% CL)
[4] = 12 mo, 25 mg p.o. daily, methanesulfonate

In the case of `CC(C)(N)C(=O)N[C@H](COCc1ccccc1)C(=O)N1CCC2(CC1)CN(S(C)(=O)=O)c1ccccc12.CS(=O)(=O)O` [MK-677, N-[1(R)-[(1,2-dihydro-1-methanesulfonylspiro[3H-indole-3,4′-piperidin]-1′-yl)carbonyl]-2-(phenylmethyloxy)ethyl]-2-amino-2-methylpropanamide methanesulfonate], the “increase in appendicular skeletal muscle compared to placebo” value ([1]; 25 mg orally daily, over the first year) is reported as 1.6 kg, the “Total ASM change from baseline and vs. placebo” value ([1]; 6 and 12 months, DXA) is reported as “significantly increased” and the “Estimated Difference in Change (MK-677 vs Placebo), Body Wt” value ([1]; 6 mo, 25 mg p.o. daily) is reported as 2.3 (0.8-3.8)*** kg. The “Estimated Difference in Change (MK-677 vs Placebo), FFM, 4-C” value ([1]; 6 mo, 25 mg p.o. daily) was 1.28 (0.21-2.36)* kg, the “Estimated Difference in Change (MK-677 vs Placebo), FFM, DXA” value ([1]; 6 mo, 25 mg p.o. daily) was 1.15 (0.28-2.02)** kg and the “Mean Change in FFM from Baseline, 4-C” value [1, 3] was 1.12 (0.48-1.75) kg. The “Mean Change in FFM from Baseline, DXA” value [1, 3] was 0.98 (0.47-1.48) kg, the “Total body weight increase” value ([1]; 6 months, 25 mg p.o. daily, placebo 0.7 kg) was 3.1 kg and the “Estimated Difference in Change (MK-677 vs Placebo), Body Wt” value ([1]; 12 mo, 25 mg p.o. daily) was 1.9 (0.5-3.4)** kg. For the same compound, the “Estimated Difference in Change (MK-677 vs Placebo), FFM, 4-C” value ([1]; 12 mo, 25 mg p.o. daily) was 1.64 (0.56-2.71)** kg, the “Estimated Difference in Change (MK-677 vs Placebo), FFM, DXA” value ([1]; 12 mo, 25 mg p.o. daily) was 1.54 (0.67-2.41)*** kg and the “Mean Change in FFM from Baseline, 4-C” value [1, 4] was 1.27 (0.64-1.90) kg. For the same compound, the “Mean Change in FFM from Baseline, DXA” value [1, 4] was 1.09 (0.58-1.59) kg, the “increase in thigh muscle area measured by CT vs. placebo” value ([1]; 12 months) was “did not reach statistical significance” and the “Total body weight increase” value ([1]; 12 months, 25 mg p.o. daily, placebo 0.8) was 2.7 kg. The “total body fat increase from baseline, DXA” value ([1]; 12 months, 25 mg p.o. daily, placebo 1.1 kg) was 1.8 kg, the “mean AVF increase from baseline, CT” value ([1]; 12 months, 25 mg p.o. daily, placebo 4.2 cm^2) was 8.4 cm^2 and the “Subcutaneous fat change from baseline” value ([1]; 12 months, CT) was “significantly increased from baseline”. The “leg ASM change vs. baseline” value ([1]; 12 months, DXA) was “increased significantly”, the “total body fat, difference between MK-677 and placebo groups” value ([1]; 12 months, DXA) was “no significant difference between groups” and the “increase in FFM of the first year, in subjects treated for 2 yr” value ([1]; Yr 2, n=17, descriptive data) was “maintained”. The “increase in FFM in subjects switched from MK-677 to placebo” value ([1]; yr 2, descriptive data) was “lost”, the “Insulin resistance estimated by Quicki” value ([2]; after 6 and 12 months of treatment, vs. placebo) was “increased significantly” and the “hemoglobin A1c levels” value ([2]; most subjects on MK-677) was “slight elevations”.
